Assay [1] relates to MCMV-Luc. In words: In vivo analysis of CM treated MCMV-Luc injected into mice (IVIS). To be noted: 1×10^5 pfu intraperitoneally. The protocol:
In vivo experiments: To check the efficacy of CM in the animal model, mouse cytomegalovirus expressing the luciferase gene (MCMVLuc) was used. […] The 25×10^6 PFU/ml of MCMVLuc viruses were treated with 10 μM, 1.0 μM, and 0.1 μM of CM for two hours at room temperature. The MCMVLuc viruses were washed with RPMI to remove CM and suspended in 1 ml of incomplete RPMI. Thereafter, 200 μl of the CM treated MCMVLuc was injected into five mice per group. The luciferase activity was measured every other day using bioluminescence assay by an in vivo imaging system (IVIS). Briefly, the mice were anesthetized using isoflurane and injected with the luciferin substrate. The injected mice were incubated at RT for five minutes and luciferase activity was determined using IVIS. In control experiments, the MCMVLuc viruses were treated with PET only and followed in a similar way as described above.
The MCMV-Luc virus was purified using a sucrose gradient and titrated. Following purification, 5×10^5 pfu of MCMV-Luc was treated with 10 μM, 1 μM and 0.1 μM of CM for 2 hours at RT. Thereafter, treated 1×10^5 pfu were injected intraperitoneally into five mice for each concentration. […] During this attenuated infection, the mouse immune system had sufficient time to recognize the virus as a foreign antigen and generate antibodies specific for the virus. Moreover, since the attenuated MCMV-Luc was whole viral particles, they contained all possible antigens relevant to priming a protective humeral response. As expected, the MCMV-Luc viral particles that were not treated with CM treatment replicated rapidly in the host mice, as observed by IVIS imaging in FIG. 4B.

Another assay has as its system ToledoLuc strain of HCMV. In words: ToledoLuc growth curve in MRC-5 cells after CM treatment of virus (bioluminescence). In kind it is cell-based, human cytomegalovirus. The protocol:
ToledoLuc treatment with CM: The human cytomegalovirus (HCMV) strain ToledoLuc, which contains a luciferase expression cassette, was used in this study and well-known to those of skill in the art. Cells of the MRC-5 human diploid fibroblast line were seeded into 12-well plates. […] After 2 hours of treatment with CM, ToledoLuc viruses were washed 3 times with cDMEM and added to MRC-5 cells at an MOI of 0.05 in triplicate wells. The control includes the ToledoLuc treated with the PET vehicle in a similar way. The growth kinetics of ToledoLuc was determined by bioluminescence assay. The luciferase activity of ToledoLuc virus was measured every 24 hours using IVIS-50.
In the present example, the effect of CM treatment on the HCMV was first examined using the modified ToledoLuc strain of HCMV. ToledoLuc was treated with different concentrations of CM for two hours at room temperature, washed to remove unbound CM and then allowed to grow in the MRCS cells.

In a further assay the test system is E. coli. In words: CM treatment of E. coli, colony count on LB agar plates. The assay is classed as cell-based. To be noted: three hours at room temperature. The protocol: CM treatment of E. coli: Overnight cultures of E. coli culture were diluted 200 times in LB media to make final volume of 1 ml and treated with different concentrations (100 μM, 10 μM, 1 μM, and 0.1 μM) of centanamycin for three hours at room temperature. The treated E. coli cells were then centrifuged at 10,000 rpm for 1 min, supernatant was removed and the pellet was resuspended in 100 μl of LB and plated on the LB agar plate without any antibiotic. The plates were then incubated at 37° C. for 16 hours. To determine the effect of centanamycin, the number of colonies were counted on each plate.
First, a culture of E. coli that had been established by an overnight incubation was diluted 200 times in LB media to make final volume to be 1 ml, followed by treatment with different concentrations of centanamycin (100 μM, 10 μM, 1 μM, and 0.1 μM) for three hours at room temperature. The treated cells were then centrifuged at 10,000 rpm for 1 min, supernatant was removed and the pellet was resuspended in 100 μl of LB and plated on LB agar plates without any antibiotic. The plates were then incubated at 37° C. for 16 hours. To determine the effect of centanamycin, the number of colonies on each plate were counted (FIGS. 6A-6B). […] Some of these bacteria were replication-defective and attenuated, making them suitable for use as vaccines.

A further assay has as its system HSV-2 GFP. As to the kind of experiment: HSV-2 GFP fluorescence imaging and growth curve (plaque assay) in ARPE-19 cells after CM treatment. The assay is classed as cell-based, human simplex virus-2. The conditions noted are these: for HSV-2-GFP infection and growth: ARPE-19 cells. The protocol: Human Simplex Virus (HSV) treatment with CM: The ARPE-19 (ATCC CRL-2302) cells were grown in 12 well plate in DMEM with 10% FBS and 1% P/S. […] were treated with different concentration of centanamycin (100 μM, 10 μM, 1μM, 0.1 μM, and 0.01 μM) for two hours at room temperature. The CM treated HSV were washed 3 times with cDMEM after treatment to remove CM and added to the ARPE-19 cells in triplicate at an MOI of 0.2. The HSV viruses were collected at 6, 12, 18, 24, 30, 36, and 42 hours of post-infection. The virus titer was determined by plaque assays using ARPE-19 cells.
In this study, the HSV-2 GFP was treated with the different concentrations of CM ranging from 100 μM to 0.01 μM (10-fold serial dilution at each concentration) and determined the growth curve using plaque assay (FIG. 2B). […] A 10 μM CM treatment of HSV-2-GFP leads to the virus attenuation and the virus was not able to spread to adjacent cells (FIG. 2A). […] The virus treatment with 1 μM CM lead to viral infection in host cells and extremely slowly spread to neighbor cells (FIG. 2A).

Assay [2] concerns MCMV-Luc. In words: MCMV-Luc growth curve in NIH 3T3 cells after CM treatment. In kind it is cell-based, mouse cytomegalovirus. The conditions noted are these: two hours at RT, MOI 0.1. The protocol: Previous studies in the current disclosure had been conducted in vitro. […] This study would identify a CM concentration required to attenuate the MCMV. For this assay, a luciferase-expressing version of MCMV, MCMV-Luc was used, and viral growth was measured as photon counts during intravital imaging using an in vivo imaging system (IVIS). The MCMV-Luc was treated with different concentrations of CM at RT for two hours and then added to NIH 3T3 cells established in 24 well plates in triplicate at a multiplicity of infection (MOI) of 0.1. The MCMV growth curve was determined by measuring the luciferase expression every 24 h using IVIS. […] This information was used to perform In vivo analysis of CM effect on the MCMV replication in the mice.

This note sets out measurements from patent publication US20230390386A1, “REPLICATION-DEFECTIVE VACCINES AND USES THEREOF” (priority 2020, published 2023).

Turning to `COc1cc2cc(C(=O)Nc3cc(N)c4ccccc4c3CCCl)[nH]c2c(OC)c1OC` [CM, centanamycin], the “MCMV-Luc infection and replication in mice (IVIS)” value was “able to infect the mice but did not replicate further from the site of infection” with MCMV-Luc [1] (virus treated with 0.1 μM CM), “able to infect the mice but did not replicate further from the site of infection” with MCMV-Luc [1] (virus treated with 1 μM CM) and “did not infect the mice” with MCMV-Luc [1] (virus treated with 10 μM CM). Further, the “ToledoLuc infection and replication (luciferase activity)” value in the assay with ToledoLuc strain of HCMV (virus treated with 0.01 μM-0.001 μM CM) was “allows the virus to grow and replicate in the infected cells”; in the assay with ToledoLuc strain of HCMV (virus treated with 0.1 μM CM, 2 hours at RT), “allow the virus to infect the cells but did not replicate”; in the assay with ToledoLuc strain of HCMV (virus treated with 1 μM CM, 2 hours at RT, MRC5 cells, 9 days post-infection), “did not grow and was replication-defective”; in the assay with ToledoLuc strain of HCMV (virus treated with 10 μM CM, 2 hours at RT, MRC5 cells) it was “neither replicate nor infects the cells”; in the assay on ToledoLuc strain of HCMV (virus treated with 100 μM CM, 2 hours at RT, MRC5 cells) it was “neither replicate nor infects the cells”. The “E. coli colonies on LB agar plate after 16 hours” value with E. coli (0.1 μM) is reported as “reduce the number of bacterial colonies on the agar plate in a dose dependent manner”; in the assay on E. coli (1 μM), “reduce the number of bacterial colonies on the agar plate in a dose dependent manner”; in the assay on E. coli (10 μM) it was “reduce the number of bacterial colonies on the agar plate in a dose dependent manner”; with E. coli (100 μM) it was “did not grow on the LB agar plate”. Moreover, the “CM concentration needed to produce replication-defective HSV-2” value with HSV-2 GFP was found to be 1 µM. Further, the “HSV-2-GFP infection and growth” value in the assay with HSV-2 GFP (virus treated with 1.0 μM CM) is “slower growth as compared to untreated”; in the assay on HSV-2 GFP (virus treated with 10 μM CM), “able to infect the cells but not replicate”; in the assay on HSV-2 GFP (virus treated with 100 μM CM), “completely inhibits the virus infection”. Besides, the “MCMV-Luc infection and replication (luciferase expression)” value is “able to grow and replicate but slower than untreated” in the assay with MCMV-Luc [2] (virus treated with 0.01 μM CM); “allowed the virus to infect host cells but not replicate” with MCMV-Luc [2] (virus treated with 1.0 μM CM); “did not allow the MCMV-Luc to infect the cells” in the assay on MCMV-Luc [2] (virus treated with 10 μM CM).
